The source made the active and inactive calls.
Experiments:
Beta-lactamase = Beta-lactamase (Salmonella choleraesuis (strain SC-B67), UniProt Q5J463)
Insulin-degrading enzyme = molecular target: T1, Insulin-degrading enzyme (Homo sapiens, UniProt P14735); experiment: recombinant IDE activation, cell-free – biochemical, fluorescence polarization, counter-screen for IDE activator project, dose response (AID 588681)
T1 sequence (P14735 whole entry): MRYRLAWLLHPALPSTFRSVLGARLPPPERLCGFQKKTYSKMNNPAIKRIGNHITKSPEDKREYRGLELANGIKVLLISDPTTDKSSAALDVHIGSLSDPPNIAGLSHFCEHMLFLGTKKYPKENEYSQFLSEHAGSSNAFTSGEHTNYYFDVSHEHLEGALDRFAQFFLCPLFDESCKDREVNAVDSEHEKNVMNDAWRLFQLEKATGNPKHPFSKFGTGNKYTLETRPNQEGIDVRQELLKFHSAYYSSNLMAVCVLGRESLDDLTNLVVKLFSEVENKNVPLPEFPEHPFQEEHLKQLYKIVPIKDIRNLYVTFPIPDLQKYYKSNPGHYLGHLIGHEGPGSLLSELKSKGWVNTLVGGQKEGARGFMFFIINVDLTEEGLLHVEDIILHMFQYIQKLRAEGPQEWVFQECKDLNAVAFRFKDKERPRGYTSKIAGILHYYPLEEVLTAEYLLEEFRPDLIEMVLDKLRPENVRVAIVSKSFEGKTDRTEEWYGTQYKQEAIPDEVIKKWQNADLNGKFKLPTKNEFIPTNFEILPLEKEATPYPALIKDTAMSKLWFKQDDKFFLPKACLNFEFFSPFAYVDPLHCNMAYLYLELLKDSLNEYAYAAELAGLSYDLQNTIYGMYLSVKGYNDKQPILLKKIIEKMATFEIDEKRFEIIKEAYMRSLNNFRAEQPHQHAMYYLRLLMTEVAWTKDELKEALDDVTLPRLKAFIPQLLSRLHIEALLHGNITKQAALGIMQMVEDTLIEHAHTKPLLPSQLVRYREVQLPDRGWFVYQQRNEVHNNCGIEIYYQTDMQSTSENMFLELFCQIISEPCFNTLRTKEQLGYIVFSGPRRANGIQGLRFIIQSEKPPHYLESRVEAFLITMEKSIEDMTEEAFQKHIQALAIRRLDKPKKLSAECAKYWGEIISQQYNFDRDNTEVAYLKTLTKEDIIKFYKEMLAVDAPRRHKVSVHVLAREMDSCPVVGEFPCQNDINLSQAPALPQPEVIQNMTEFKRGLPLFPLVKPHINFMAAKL

HeLa = experiment: viability loss in HeLa cells – cell-based, 24 h, cherry-picked samples, cytotoxicity control, dose response (AID 504726); format: functional; settings: Homo sapiens;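 also: potency for cytotoxicity as loss of luminescence signal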
Streptococcus = experiment: GAS UMAA2166 growth inhibition – luminescence, BacTiterGlo, counter-screen for streptokinase expression inhibitor project, dose response (AID 1915); format: functional, organism-based;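 also: potency for reduction of bacterial viability or growth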
[1] = molecular target: T2, Serine/threonine-protein phosphatase (Candida dubliniensis (strain CD36 / CBS 7987 / NCPF 3949 / NRRLY-17841) (Yeast), UniProt B9W6M3); experiment: blockers of CaCl2-induced CDRE-lacZ signaling – S. cerevisiae, luminescence, secondary, dose response (AID 2388); format: functional, cell-based;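 also: yeast reporter cells carrying a calcineurin-responsive lacZ construct stimulated with calcium chloride; luminescent beta-galactosidase reporter signal in whole cells rather than isolated phosphatase activity; potency for inhibition where a drop in reporter signal means calcineurin blockade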
T2 sequence (B9W6M3 whole entry): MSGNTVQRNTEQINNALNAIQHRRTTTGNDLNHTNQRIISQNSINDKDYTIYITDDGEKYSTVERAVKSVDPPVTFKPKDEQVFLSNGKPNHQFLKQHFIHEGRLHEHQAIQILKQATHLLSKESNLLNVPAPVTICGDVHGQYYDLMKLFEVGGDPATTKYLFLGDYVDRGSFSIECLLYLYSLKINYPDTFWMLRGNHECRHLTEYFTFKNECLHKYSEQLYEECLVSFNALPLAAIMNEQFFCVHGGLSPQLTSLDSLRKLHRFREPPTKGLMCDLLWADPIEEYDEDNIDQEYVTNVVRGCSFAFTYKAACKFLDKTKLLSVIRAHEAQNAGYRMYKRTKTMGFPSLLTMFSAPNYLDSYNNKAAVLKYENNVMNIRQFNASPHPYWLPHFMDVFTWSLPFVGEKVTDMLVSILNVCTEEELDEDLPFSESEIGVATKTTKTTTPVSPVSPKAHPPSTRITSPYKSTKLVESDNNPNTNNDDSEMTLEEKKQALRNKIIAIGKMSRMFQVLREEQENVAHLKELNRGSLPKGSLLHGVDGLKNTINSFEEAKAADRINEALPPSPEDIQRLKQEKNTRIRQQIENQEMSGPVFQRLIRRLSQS

Cysteine protease ATG4B = molecular target: T3, Cysteine protease ATG4B (Homo sapiens, UniProt Q9Y4P1); format: functional;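 also: Fluorescence-based dose-response confirmation assay measuring inhibition of ATG4B activity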
T3 sequence (Q9Y4P1 whole entry): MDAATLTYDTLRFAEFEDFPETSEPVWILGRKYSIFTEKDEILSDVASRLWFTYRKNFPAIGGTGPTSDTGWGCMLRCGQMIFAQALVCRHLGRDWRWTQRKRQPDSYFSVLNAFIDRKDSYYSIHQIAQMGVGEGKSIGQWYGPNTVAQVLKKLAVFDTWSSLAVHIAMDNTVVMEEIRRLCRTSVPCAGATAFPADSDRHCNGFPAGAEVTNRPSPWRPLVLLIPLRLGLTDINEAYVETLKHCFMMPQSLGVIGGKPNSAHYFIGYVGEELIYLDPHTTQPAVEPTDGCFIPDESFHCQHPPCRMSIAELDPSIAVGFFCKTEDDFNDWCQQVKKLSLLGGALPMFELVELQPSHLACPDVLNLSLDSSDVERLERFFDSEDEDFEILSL

Exodeoxyribonuclease V = Exodeoxyribonuclease V (Escherichia coli (strain K12), UniProt P04993+P07648+P08394); experiment: RecBCD inhibition via phage-restricted bacterial growth – absorbance, V66 E. coli, mutant T4 phage, counter-screen for AddAB inhibitor project, dose response (AID 492957); format: functional, cell-based, Escherichia coli str. K-12 substr. MG1655
[2] = molecular target: Heat shock protein HSP 90-alpha (Homo sapiens, UniProt P07900); format: functional, organism-based
[3] = NIH3T3 cell viability loss – ATP luminescence, mouse fibroblasts, counter-screen, dose response (AID 2010); format: functional, cell-based;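 also: cells exposed to compound for about 90 hours before reading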
Phospholipase A2 = Phospholipase A2 (Homo sapiens, UniProt P04054); experiment: phospholipase A2 activity inhibition – biochemical, set 2, counter-screen for ATG4B inhibitor project, dose response (AID 588586); format: functional
Cytochrome P450 3A4 = Cytochrome P450 3A4 (Homo sapiens, UniProt P08684);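 also: CYP3A4 tested as one member of a cytochrome P450 panel screen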
[4] = molecular target: Guanyl-specific ribonuclease T1 (Aspergillus oryzae (strain ATCC 42149 / RIB 40), UniProt P00651); experiment: inhibition of ribonuclease T1 activity – biochemical, fluorescence polarization, 1536-well, counter-screen for TPT1 inhibitor project, dose response (AID 2167)
Chain of Guanyl-specific ribonuclease T1 (P00651 whole entry): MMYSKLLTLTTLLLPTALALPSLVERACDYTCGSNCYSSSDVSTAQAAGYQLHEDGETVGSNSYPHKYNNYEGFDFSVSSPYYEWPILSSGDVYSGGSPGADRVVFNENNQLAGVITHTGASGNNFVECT

Chain of Cytochrome P450 3A4 (P08684 whole entry): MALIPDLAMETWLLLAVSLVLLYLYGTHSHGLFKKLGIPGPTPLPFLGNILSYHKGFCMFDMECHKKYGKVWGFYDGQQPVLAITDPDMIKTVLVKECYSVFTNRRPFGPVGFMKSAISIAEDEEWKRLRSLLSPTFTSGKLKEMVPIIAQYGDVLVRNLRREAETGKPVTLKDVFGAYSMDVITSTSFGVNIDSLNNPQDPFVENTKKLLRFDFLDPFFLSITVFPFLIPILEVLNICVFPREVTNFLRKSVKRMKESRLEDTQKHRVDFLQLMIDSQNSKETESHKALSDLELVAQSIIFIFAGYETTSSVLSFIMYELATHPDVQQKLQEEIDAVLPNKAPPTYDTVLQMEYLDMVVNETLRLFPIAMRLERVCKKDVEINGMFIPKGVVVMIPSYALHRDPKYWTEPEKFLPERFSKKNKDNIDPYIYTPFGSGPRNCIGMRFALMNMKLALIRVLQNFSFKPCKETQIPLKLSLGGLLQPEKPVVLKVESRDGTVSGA
Chain of Exodeoxyribonuclease V (P04993 whole entry): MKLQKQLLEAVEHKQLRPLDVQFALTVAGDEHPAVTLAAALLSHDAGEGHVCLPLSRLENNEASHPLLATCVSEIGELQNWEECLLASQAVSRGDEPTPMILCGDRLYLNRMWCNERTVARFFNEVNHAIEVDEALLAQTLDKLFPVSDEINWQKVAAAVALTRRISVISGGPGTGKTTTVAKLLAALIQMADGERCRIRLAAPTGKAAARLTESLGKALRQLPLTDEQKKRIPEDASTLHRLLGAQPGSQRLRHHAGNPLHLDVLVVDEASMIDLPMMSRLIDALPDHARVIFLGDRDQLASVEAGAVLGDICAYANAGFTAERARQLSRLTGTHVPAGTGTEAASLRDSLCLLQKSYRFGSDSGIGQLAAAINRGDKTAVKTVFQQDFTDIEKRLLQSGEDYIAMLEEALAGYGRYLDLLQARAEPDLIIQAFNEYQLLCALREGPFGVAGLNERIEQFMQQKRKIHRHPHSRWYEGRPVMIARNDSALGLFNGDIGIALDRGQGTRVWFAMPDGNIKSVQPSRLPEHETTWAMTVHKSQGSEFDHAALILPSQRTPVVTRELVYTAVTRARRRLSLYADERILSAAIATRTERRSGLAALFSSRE
Chain of Exodeoxyribonuclease V (P07648 whole entry): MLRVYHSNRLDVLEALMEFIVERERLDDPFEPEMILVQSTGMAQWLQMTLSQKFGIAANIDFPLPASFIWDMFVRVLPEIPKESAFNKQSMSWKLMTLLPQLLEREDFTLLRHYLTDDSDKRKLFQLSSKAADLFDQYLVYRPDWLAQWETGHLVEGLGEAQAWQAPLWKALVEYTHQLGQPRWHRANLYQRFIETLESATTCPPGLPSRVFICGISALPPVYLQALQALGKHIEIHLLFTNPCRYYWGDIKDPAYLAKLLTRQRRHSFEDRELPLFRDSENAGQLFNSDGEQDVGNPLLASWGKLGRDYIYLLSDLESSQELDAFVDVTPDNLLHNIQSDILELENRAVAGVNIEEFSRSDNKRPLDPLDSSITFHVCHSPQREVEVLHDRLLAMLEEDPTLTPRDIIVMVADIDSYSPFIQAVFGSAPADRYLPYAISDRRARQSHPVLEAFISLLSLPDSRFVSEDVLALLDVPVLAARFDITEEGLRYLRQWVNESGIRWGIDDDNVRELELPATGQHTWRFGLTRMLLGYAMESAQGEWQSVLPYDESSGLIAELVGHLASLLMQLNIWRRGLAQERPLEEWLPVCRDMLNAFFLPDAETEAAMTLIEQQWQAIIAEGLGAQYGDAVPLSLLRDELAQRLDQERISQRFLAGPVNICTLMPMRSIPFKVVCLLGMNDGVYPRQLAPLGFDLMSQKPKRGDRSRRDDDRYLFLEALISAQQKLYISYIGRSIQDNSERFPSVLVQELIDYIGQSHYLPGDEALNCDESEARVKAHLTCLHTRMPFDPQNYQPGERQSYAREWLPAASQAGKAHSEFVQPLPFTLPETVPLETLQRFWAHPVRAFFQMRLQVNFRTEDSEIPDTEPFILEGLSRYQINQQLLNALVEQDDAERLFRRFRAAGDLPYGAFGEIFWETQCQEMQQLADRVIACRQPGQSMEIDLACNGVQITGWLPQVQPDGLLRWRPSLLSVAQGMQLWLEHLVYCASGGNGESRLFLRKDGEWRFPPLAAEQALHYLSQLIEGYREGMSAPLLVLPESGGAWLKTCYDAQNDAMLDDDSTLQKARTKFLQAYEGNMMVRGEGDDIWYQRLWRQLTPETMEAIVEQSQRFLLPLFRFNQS
Chain of Exodeoxyribonuclease V (P08394 whole entry): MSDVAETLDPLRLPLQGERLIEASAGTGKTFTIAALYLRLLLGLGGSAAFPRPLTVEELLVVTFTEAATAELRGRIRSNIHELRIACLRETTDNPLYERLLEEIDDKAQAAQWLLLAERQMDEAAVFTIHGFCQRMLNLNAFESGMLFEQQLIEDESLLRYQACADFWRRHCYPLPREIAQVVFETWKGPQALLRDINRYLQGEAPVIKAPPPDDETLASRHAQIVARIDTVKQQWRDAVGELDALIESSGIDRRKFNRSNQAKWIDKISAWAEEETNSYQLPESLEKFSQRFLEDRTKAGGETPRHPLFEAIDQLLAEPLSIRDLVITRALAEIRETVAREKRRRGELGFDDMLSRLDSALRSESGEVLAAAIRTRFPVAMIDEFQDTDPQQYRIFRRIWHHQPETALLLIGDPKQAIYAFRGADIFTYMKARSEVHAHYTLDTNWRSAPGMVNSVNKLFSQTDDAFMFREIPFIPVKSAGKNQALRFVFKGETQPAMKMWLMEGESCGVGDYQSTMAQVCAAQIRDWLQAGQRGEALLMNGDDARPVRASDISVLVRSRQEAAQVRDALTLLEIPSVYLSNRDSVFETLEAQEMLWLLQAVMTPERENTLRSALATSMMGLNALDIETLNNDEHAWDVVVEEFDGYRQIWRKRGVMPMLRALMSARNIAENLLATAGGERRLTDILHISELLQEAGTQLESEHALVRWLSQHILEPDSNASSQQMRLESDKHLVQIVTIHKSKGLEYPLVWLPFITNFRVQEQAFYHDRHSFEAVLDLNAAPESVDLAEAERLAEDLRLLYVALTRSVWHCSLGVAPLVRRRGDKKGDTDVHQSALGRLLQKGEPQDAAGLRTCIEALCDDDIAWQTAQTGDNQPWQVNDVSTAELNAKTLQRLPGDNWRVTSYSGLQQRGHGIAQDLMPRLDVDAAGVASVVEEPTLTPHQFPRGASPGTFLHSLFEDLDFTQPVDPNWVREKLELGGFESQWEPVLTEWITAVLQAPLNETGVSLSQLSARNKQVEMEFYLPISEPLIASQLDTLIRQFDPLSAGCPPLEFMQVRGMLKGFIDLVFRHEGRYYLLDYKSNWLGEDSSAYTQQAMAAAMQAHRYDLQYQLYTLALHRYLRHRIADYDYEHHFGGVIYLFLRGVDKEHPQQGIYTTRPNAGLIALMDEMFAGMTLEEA
Chain of Beta-lactamase (Q5J463 whole entry): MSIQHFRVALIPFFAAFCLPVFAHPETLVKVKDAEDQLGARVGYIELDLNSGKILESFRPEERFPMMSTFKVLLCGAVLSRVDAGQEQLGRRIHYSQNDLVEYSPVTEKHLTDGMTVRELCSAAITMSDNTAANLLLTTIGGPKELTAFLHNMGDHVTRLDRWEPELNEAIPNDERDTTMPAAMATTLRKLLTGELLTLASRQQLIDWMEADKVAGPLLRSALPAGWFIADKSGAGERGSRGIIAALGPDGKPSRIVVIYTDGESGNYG
Chain of Phospholipase A2 (P04054 whole entry): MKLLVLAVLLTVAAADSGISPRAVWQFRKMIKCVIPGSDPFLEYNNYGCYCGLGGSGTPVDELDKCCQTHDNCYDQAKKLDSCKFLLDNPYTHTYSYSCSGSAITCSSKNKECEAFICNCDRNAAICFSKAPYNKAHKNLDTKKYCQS

O=C1CCN2C=Nc3cccc4ccc1c2c34
IC50 (Beta-lactamase): 7.55 µM (active) | EC50 (Insulin-degrading enzyme): > 54.7 µM (inactive) | AC50 (HeLa): 20.2 µM (active)

Oc1ccc2ccccc2c1/C=N/Nc1nnc(-c2ncc[nH]2)c2ccccc12
EC50 (Streptococcus): 5.84 µM (active) | EC50 [1]: > 180 µM (inactive) | IC50 (Cysteine protease ATG4B): 2.53 µM (active) | IC50 (Exodeoxyribonuclease V): > 119 µM (inactive) | AC50 [2]: 3.53 µM (active) | EC50 [3]: < 6 µM (inconclusive) | IC50 (Phospholipase A2): 2.47 µM (active)

CC(C)C(C(=O)O)N1C(=O)/C(=C/C=C/c2ccco2)SC1=S (configuration not stated)
AC50 (Cytochrome P450 3A4): 31.6 µM (inconclusive) | IC50 [4]: 9.85 µM (active)
